The results in this text go back to patent US10660877B2 (BRISTOL-MYERS SQUIBB COMPANY, priority 2016, dated 2020).

The target in experiment [1] is human TLR7 (Homo sapiens (Human), UniProt Q9NYK1). Briefly: TLR7 inhibition reporter assay (HEK-Blue cells, SEAP reporter, gardiquimod stimulation). Particulars: HEK-Blue cells overexpressing human TLR7, gardiquimod 7.5 μM. In kind it is cell-based. For orientation: In a reporter assay the amount or activity of a reporter protein is the signal.
Experiment [2] concerns the target human TLR8 (Homo sapiens (Human), UniProt Q9NR97). As to the kind of experiment: TLR8 inhibition reporter assay (HEK-Blue cells, SEAP reporter, R848 stimulation).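 Note: compounds tested from 0.05 nM to 50 µM, 22 h at 37 °C, SEAP measured with HEK-Blue Detection, inhibition relative to agonist plus DMSO versus a known inhibitor.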
Method: TLR7/8/9 Inhibition Reporter Assays
Briefly, cells are seeded into Greiner 384 well plates (15000 cells per well for TLR7, 20,000 for TLR8 and 25,000 for TLR9) and then treated with test compounds in DMSO to yield a final dose response concentration range of 0.05 nM-50 μM. […] After a 22 hour incubation at 37° C., 5% CO2, SEAP levels are determined with the addition of HEK-Blue™ Detection reagent (Invivogen), a cell culture medium that allows for detection of SEAP, according to manufacturer's specifications. The percent inhibition is determined as the % reduction in the HEK-Blue signal present in wells treated with agonist plus DMSO alone compared to wells treated with a known inhibitor.
The target of experiment [3] is human TLR9 (Homo sapiens (Human), UniProt Q9NR96). As to the kind of experiment: TLR9 inhibition reporter assay (HEK-Blue cells, SEAP reporter, ODN2006 stimulation).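 Note: compounds tested over 0.05 nM to 50 µM, 22 h incubation, inhibition taken as SEAP signal drop from agonist plus DMSO wells toward a known inhibitor control.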
Where [4] appears, read: read-out: TLR8 IC50, HEK-Blue cells overexpressing human TLR8, R848 15.9 μM.
Where [5] appears, read: read-out: TLR9 IC50, HEK-Blue cells overexpressing human TLR9, ODN2006 5 nM.
Where [6] appears, read: TLR8 IC50, HEK-Blue cells overexpressing human TLR8, R848 15.9 μM.
[7] abbreviates: TLR9 IC50, HEK-Blue cells overexpressing human TLR9, ODN2006 5 nM.

Structures are written as SMILES. Like-named read-outs stand apart in the source and are kept apart here.

Sequence of human TLR8 (Q9NR97 27-1041): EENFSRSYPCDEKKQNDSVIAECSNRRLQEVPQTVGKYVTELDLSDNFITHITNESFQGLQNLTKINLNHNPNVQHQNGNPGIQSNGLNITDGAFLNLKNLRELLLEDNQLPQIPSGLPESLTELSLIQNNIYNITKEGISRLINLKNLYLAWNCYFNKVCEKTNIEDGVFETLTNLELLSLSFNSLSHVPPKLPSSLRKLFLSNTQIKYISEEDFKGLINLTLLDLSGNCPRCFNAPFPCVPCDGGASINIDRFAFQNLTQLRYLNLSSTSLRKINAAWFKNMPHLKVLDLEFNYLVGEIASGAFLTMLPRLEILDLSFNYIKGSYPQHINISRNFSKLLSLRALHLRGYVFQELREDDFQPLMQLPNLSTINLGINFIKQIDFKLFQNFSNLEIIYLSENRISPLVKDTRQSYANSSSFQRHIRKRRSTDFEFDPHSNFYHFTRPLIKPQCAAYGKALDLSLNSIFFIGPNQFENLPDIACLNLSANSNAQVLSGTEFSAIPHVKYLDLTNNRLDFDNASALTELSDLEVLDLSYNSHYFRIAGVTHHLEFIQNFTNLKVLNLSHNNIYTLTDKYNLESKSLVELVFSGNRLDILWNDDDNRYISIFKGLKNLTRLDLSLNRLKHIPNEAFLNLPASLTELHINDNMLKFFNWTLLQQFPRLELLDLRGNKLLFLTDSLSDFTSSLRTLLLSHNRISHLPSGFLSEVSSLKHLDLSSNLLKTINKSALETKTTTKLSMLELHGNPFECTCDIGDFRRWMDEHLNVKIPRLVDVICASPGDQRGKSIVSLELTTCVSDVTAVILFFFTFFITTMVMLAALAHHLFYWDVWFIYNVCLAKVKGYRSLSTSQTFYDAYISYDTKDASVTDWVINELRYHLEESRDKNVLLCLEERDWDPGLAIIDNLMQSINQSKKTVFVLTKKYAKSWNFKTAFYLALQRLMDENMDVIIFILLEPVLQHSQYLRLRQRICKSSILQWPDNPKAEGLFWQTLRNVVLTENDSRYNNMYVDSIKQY
Sequence of human TLR7 (Q9NYK1 27-1049): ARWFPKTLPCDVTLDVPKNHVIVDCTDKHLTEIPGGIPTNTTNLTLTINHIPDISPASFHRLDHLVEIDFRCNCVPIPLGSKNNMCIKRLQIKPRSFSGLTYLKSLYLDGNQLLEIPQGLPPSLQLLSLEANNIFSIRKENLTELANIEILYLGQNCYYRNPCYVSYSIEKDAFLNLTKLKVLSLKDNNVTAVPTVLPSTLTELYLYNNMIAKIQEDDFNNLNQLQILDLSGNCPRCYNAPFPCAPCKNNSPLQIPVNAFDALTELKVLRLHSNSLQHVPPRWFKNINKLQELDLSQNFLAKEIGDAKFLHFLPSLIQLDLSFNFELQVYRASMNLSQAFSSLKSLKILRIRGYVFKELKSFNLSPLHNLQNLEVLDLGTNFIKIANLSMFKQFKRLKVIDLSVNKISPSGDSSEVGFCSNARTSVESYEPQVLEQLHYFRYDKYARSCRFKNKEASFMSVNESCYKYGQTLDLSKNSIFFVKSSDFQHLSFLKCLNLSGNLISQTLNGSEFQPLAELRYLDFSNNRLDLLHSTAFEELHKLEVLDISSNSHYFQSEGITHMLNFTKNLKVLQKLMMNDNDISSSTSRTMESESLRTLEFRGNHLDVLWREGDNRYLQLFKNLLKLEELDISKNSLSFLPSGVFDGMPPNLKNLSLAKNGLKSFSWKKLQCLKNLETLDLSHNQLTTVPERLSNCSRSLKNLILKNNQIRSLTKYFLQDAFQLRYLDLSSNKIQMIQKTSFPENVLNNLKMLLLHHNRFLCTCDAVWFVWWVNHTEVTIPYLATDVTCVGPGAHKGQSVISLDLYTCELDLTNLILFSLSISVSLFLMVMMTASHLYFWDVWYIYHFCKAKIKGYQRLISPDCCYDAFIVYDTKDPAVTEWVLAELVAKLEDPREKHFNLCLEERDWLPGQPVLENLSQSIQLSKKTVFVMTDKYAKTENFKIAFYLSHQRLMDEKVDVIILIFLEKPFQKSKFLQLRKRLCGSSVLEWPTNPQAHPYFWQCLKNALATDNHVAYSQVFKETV
Sequence of human TLR9 (Q9NR96 26-1032): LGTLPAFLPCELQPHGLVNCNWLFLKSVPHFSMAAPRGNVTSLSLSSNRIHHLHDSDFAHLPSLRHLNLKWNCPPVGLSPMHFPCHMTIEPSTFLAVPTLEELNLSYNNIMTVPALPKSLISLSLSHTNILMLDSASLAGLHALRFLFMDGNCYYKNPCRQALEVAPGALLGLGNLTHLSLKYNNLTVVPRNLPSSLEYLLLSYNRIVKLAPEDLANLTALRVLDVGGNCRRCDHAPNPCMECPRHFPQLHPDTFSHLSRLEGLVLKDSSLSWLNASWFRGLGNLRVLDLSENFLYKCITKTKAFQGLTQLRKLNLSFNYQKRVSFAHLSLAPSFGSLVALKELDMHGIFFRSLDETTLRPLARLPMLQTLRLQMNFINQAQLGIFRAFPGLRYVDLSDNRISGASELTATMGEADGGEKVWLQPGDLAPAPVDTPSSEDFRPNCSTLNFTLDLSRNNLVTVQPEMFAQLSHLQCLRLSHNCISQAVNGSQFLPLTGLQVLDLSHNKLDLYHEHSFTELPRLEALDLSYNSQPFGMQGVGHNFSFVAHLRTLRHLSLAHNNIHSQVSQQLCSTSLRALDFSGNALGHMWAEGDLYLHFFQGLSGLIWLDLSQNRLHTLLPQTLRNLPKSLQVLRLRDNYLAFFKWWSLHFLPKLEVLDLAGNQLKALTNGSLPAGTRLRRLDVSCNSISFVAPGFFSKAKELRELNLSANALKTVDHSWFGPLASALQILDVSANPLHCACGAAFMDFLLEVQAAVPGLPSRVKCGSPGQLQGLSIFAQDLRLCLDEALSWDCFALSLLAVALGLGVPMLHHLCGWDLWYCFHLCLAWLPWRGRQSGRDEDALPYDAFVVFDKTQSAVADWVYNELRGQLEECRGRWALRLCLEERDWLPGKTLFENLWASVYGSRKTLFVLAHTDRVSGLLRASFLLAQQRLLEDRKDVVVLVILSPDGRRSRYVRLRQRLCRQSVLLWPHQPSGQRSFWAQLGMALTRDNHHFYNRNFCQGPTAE

As to `CCc1c(-c2cc(C)nc(C)c2)[nH]c2ccc(C3CCN(C(=O)CN(C)C)CC3)cc12` [Example 528, 2-(dimethylamino)-1-(4-(2-(2,6-dimethylpyridin-4-yl)-3-ethyl-1H-indol-5-yl)piperidin-1-yl)ethan-1-one], the IC50 in experiment [1] came to 16 nM; in experiment [2] (setting [4]), 50.9 nM; in experiment [3] (setting [5]), 150 nM.

Take `Cc1cc(-c2[nH]c3ccc(C4CCN(Cc5ccccc5)CC4)cc3c2C(C)C)cc(C)n1` [Example 318, 5-(1-benzylpiperidin-4-yl)-2-(2,6-dimethylpyridin-4-yl)-3-isopropyl-1H-indole]: the results for the IC50 in experiment [1], in experiment [2] (setting [4]) and in experiment [3] (setting [5]) were 25.4 nM, 12.6 nM and 779 nM, respectively.

Take `Cc1cc(-c2[nH]c3ccc(C4CCN(Cc5cn(C)nn5)CC4)cc3c2C(C)C)cc(C)n1` [Example 442, 2-(2,6-dimethylpyridin-4-yl)-3-isopropyl-5-(1-((1-methyl-1H-1,2,3-triazol-4-yl)methyl)piperidin-4-yl)-1H-indole]: the IC50 was found to be 5.3 nM in experiment [1], 6.7 nM in experiment [2] (setting [4]) and 1190 nM in experiment [3] (setting [5]).

`Cc1cc(-c2[nH]c3ccc(C4CCN(C(=O)CCNS(=O)(=O)c5ccccc5)CC4)cc3c2C(C)C)cc(C)n1` [Example 120, N-(3-(4-(2-(2,6-dimethylpyridin-4-yl)-3-isopropyl-1H-indol-5-yl)piperidin-1-yl)-3-oxopropyl)benzenesulfonamide]: the IC50 in experiment [1] turned out to be 12.5 nM; in experiment [2] (setting [4]), 158 nM; in experiment [3] (setting [5]), 16200 nM.

On to `CNCC(=O)N1CCC(c2ccc3[nH]c(-c4cc(C)ncc4C)c(C(C)C)c3c2)CC1` [Example 620, 1-(4-(2-(2,5-dimethylpyridin-4-yl)-3-isopropyl-1H-indol-5-yl)piperidin-1-yl)-2-(methylamino)ethan-1-one], for which the IC50 in experiment [1] amounted to 8.1 nM; in experiment [2] (setting [6]), 3.5 nM; in experiment [3] (setting [7]), 3570 nM.

On to `COc1c(-c2[nH]c3ccc(C4CCNCC4)cc3c2C(C)C)cc[n+]([O-])c1C` [Example 57], for which the IC50 in experiment [1] amounted to 489 nM; in experiment [2] (setting [4]), 281 nM; in experiment [3] (setting [5]), 1770 nM.

On to `CNC(=O)CN1CCC(c2ccc3[nH]c(-c4cc(C)nc(C)c4)c(CC(F)F)c3c2)CC1` [Example 532, 2-(4-(3-(2,2-difluoroethyl)-2-(2,6-dimethylpyridin-4-yl)-1H-indol-5-yl)piperidin-1-yl)-N-methylacetamide], for which the IC50 in experiment [1] was 17.4 nM; in experiment [2] (setting [4]), 81.8 nM; in experiment [3] (setting [5]) it was 813 nM.

In the case of `Cc1cc(-c2[nH]c3ccc(C4CCN(CC(=O)NCC(C)(C)O)CC4)cc3c2C(C)C)cc(C)n1` [Example 268, 2-(4-(2-(2,6-dimethylpyridin-4-yl)-3-isopropyl-1H-indol-5-yl)piperidin-1-yl)-N-(2-hydroxy-2-methylpropyl)acetamide], the results for the half-maximal inhibitory concentration (IC50) in experiment [1], in experiment [2] (setting [4]) and in experiment [3] (setting [5]) were 3 nM, 7.2 nM and 416 nM, respectively.

Consider `Cc1cc(-c2[nH]c3ccc(C4CCN(C5CC(C)OC(C)C5)CC4)cc3c2C(C)C)ccn1` (stereo not drawn) [Example 712, 5-(1-(2,6-dimethyltetrahydro-2H-pyran-4-yl)piperidin-4-yl)-3-isopropyl-2-(2-methylpyridin-4-yl)-1H-indole], for which the IC50 amounted to 36.8 nM in experiment [1], 16.4 nM in experiment [2] (setting [4]) and 1190 nM in experiment [3] (setting [5]).

Consider `Cc1cc(-c2[nH]c3ccc(C4CCN(CC(F)F)CC4)cc3c2C(C)C)c(F)cn1` [Example 649, 5-(1-(2,2-difluoroethyl)piperidin-4-yl)-2-(5-fluoro-2-methylpyridin-4-yl)-3-isopropyl-1H-indole], for which the IC50 is 45.7 nM in experiment [1], 16.2 nM in experiment [2] (setting [4]) and greater than 50000 nM in experiment [3] (setting [5]).

With `CCCS(=O)(=O)N1CCC(c2ccc3[nH]c(-c4ccnc(C)c4)c(C(C)C)c3c2)CC1` [Example 545, 3-isopropyl-2-(2-methylpyridin-4-yl)-5-(1-(propylsulfonyl)piperidin-4-yl)-1H-indole], the IC50 in experiment [1] is 102 nM; in experiment [2] (setting [4]), 266 nM; in experiment [3] (setting [5]), greater than 50000 nM.

`Cc1cc(-c2[nH]c3ccc(C4CCN(CC(=O)NC5CCCOC5)CC4)cc3c2C(C)C)cc(C)n1` (stereo not drawn) [Example 279, 2-(4-(2-(2,6-dimethylpyridin-4-yl)-3-isopropyl-1H-indol-5-yl)piperidin-1-yl)-N-(tetrahydro-2H-pyran-3-yl)acetamide]: the values for the IC50 in experiment [1], in experiment [2] (setting [4]) and in experiment [3] (setting [5]) were 2.3 nM, 11 nM and 512 nM, respectively.

For the compound `Cc1cc(-c2[nH]c3ccc(C4CCN(C(=O)C5CCNC5)CC4)cc3c2C(C)C)cc(C)n1` (single isomer, unassigned) [Example 182, (4-(2-(2,6-dimethylpyridin-4-yl)-3-isopropyl-1H-indol-5-yl)piperidin-1-yl)(pyrrolidin-3-yl) methanone], the IC50 is 1.3 nM in experiment [1], 12 nM in experiment [2] (setting [6]) and 151 nM in experiment [3] (setting [7]).

As to `Cc1cc(-c2[nH]c3ccc(C4CCN(CCCN(C)C)CC4)cc3c2C(C)C)cc(C)n1` [Example 674, 3-(4-(2-(2,6-dimethylpyridin-4-yl)-3-isopropyl-1H-indol-5-yl)piperidin-1-yl)-N,N-dimethylpropan-1-amine], the half-maximal inhibitory concentration (IC50) in experiment [1] worked out at 0.8 nM; in experiment [2] (setting [4]), 2.8 nM; in experiment [3] (setting [5]), 156 nM.

As for `Cc1cc(-c2[nH]c3ccc(C4CCN(C(=O)CN(C)C5CCOC5)CC4)cc3c2C(C)C)cc(C)n1` (stereo not drawn) [Example 413, 1-(4-(2-(2,6-dimethylpyridin-4-yl)-3-isopropyl-1H-indol-5-yl)piperidin-1-yl)-2-(methyl(tetrahydrofuran-3-yl)amino)ethan-1-one], the IC50 in experiment [1] stood at 9.6 nM; in experiment [2] (setting [4]), 91.8 nM; in experiment [3] (setting [5]), 2500 nM.

On to `Cc1cc(-c2[nH]c3ccc(C4CCN(C(=O)C5CCOC(C(C)C)C5)CC4)cc3c2C(C)C)cc(C)n1` (stereo not drawn) [Example 200, (4-(2-(2,6-dimethylpyridin-4-yl)-3-isopropyl-1H-indol-5-yl)piperidin-1-yl)(2-isopropyltetrahydro-2H-pyran-4-yl) methanone], for which the half-inhibitory concentration (IC50) in experiment [1] is 44.4 nM; in experiment [2] (setting [4]), 409 nM; in experiment [3] (setting [5]), 11200 nM.

Regarding `Cc1cc(-c2[nH]c3ccc(C4CCN(C(=O)C5CCNC5)CC4)cc3c2C(C)C)cc(C)n1` (single isomer, unassigned) [Example 181, (4-(2-(2,6-dimethylpyridin-4-yl)-3-isopropyl-1H-indol-5-yl)piperidin-1-yl)(pyrrolidin-3-yl) methanone], the figures for the IC50 in experiment [1], in experiment [2] (setting [6]) and in experiment [3] (setting [7]) were 2.6 nM, 21.5 nM and 537 nM, respectively.

With `CC(C)c1c(-c2ccnc(CN)c2)[nH]c2ccc(C3CCNCC3)cc12` [Example 14, (4-(3-isopropyl-5-(piperidin-4-yl)-1H-indol-2-yl)pyridin-2-yl)methanamine], the IC50 is 423 nM in experiment [1], 187 nM in experiment [2] (setting [4]) and 1200 nM in experiment [3] (setting [5]).

For `Cc1cc(-c2[nH]c3ccc(C4CCN(C(=O)c5cnn(C)c5)CC4)cc3c2C(C)C)cc(C)n1` [Example 132, (4-(2-(2,6-dimethylpyridin-4-yl)-3-isopropyl-1H-indol-5-yl)piperidin-1-yl)(1-methyl-1H-pyrazol-4-yl)methanone], the IC50 in experiment [1] is 4.2 nM; in experiment [2] (setting [4]) it was 90.8 nM; in experiment [3] (setting [5]), 46900 nM.

For orientation: IC50 means the midpoint of a concentration-inhibition curve.
